Experimental data reported in US20130210846A1, “USE OF NOVEL PAN-CDK INHIBITORS FOR TREATING TUMORS” (BAYER INTELLECTUAL PROPERTY GMBH, priority 2010, published 2013).

What was measured:
NCI-H69 = assay: Proliferation assay NCI-H69; assay type: cell-based; conditions: Homo sapiens, 96 h; NCI-H69, small-cell bronchial carcinoma; 4 days, crystal violet
Method: (§1) Cultivated human tumor cells (originally obtained from ATCC, HeLa-MaTu and HeLa-MaTu-ADR, originally obtained from Epo GmbH, Berlin, Germany) were plated at a density of 1000 to 5000 cells/measuring point, depending on the growth rate of the cell line, in a 96-well multititer plate in 200 μl of growth medium (DMEM/HAMS F12, 2 mM L-glutamine, 10% fetal calf serum). After 24 hours the cells of one plate (zero-point plate) were stained with crystal violet (see below), whereas the medium of the other plates was replaced with fresh culture medium (200 μl), to which the test substances had been added at various concentrations (0 μM, and in the range 0.01-30 μM; the final concentration of the solvent dimethyl sulfoxide was 0.5%). The cells were incubated for 4 days in the presence of the test substances. Cellular proliferation was determined by staining the cells with crystal violet: the cells were fixed by adding 20 μl/measuring point of an 11% glutaraldehyde solution for 15 min at room temperature. […] The extinction was determined photometrically at a wavelength of 595 nm. The percentage change in cell growth was calculated by standardization of the measured values to the extinction values of the zero-point plate (=0%) and the extinction of the untreated (0 μM) cells (=100%). […] The IC50 values were determined by means of a 4-parameter fit using the company's own software. […]

MOLM-13 = assay: Proliferation assay MOLM-13; assay type: cell-based; conditions: Homo sapiens, 96 h; MOLM-13, leukemia; 4 days, crystal violet
Method: as §1

[1] = tested on: NCI-H146 human small-cell lung tumor cells; assay: NCI-H146 human small-cell lung tumor model; assay type: in vivo, female NMRI nude mice
Excerpt: (§2) Tumor cells grown in cell culture were implanted subcutaneously in the flank of female or male NMRI nude mice. The treatment was started as soon as the tumors had grown to a size of approx. 20 mm^2 The study was ended as soon as the tumors in one of the groups reached a size of approx. 150 mm^2.
(§3) Vehicle group: treatment with solubilizer (40% PEG400/60% water)
(§4) The studies were designed for determining the initial response of the human tumor model to the treatment with the Exemplary compound 2-SI-2. Tumor growth inhibition in percent (TGI) was either calculated at the end of the studies from the tumor weights (TGITW) using the formula 100×[1−(tumor weight of the treatment group/tumor weight of the vehicle group)], or on the day the vehicle group had to be ended from the tumor areas (TGITA) using the formula 100×[1−(tumor area of the treatment group on the day of the measurement−tumor area of the treatment group prior to treatment)/(tumor area of the vehicle group on the day of the measurement−tumor area of the vehicle group prior to treatment)]. In the case of a tumor growth inhibition of more than 50%, the treatment was considered to have been effective.
Efficacy in the NCI-H146 human small-cell lung tumor model.
NCI-H146 human small-cell lung tumor cells implanted into female NMRI nude mice. […]

[2] = tested on: NCI-H82 human small-cell lung tumor cells; assay: NCI-H82 human small-cell lung tumor model; assay type: in vivo, female NMRI nude mice; conditions: NCI-H82; a) 1.7 mg/kg oral 2× per day on 3 successive days, followed by 4 treatment-free days
Excerpt: as §2, §3, §4
Efficacy in the NCI-H82 human small-cell lung tumor model.
NCI-H82 human small-cell lung tumor cells implanted into female NMRI nude mice.
• a) 0.17 mg/ml of Example 2-SI-2 in 40% (v/v) PEG 400 in water […]

[3] = tested on: MDA-MB231 human breast tumor cells; assay: MDA-MB231 human breast tumor model; assay type: in vivo, female NMRI nude mice
Excerpt: as §2, §3, §4
Efficacy in the MDA-MB231 human breast tumor model MDA-MB231.
MDA-MB231 human breast tumor cells implanted into female NMRI nude mice.
• a) 0.20 mg/ml of Example 2-SI-2 in 40% (v/v) PEG 400 in water • b) 0.25 mg/ml of Example 2-SI-2 in 40% (v/v) PEG 400 in water • c) 0.15 mg/ml of Example 2-SI-2 in 40% (v/v) PEG 400 in water • d) 0.17 mg/ml of Example 2-SI-2 in 40% (v/v) PEG 400 in water
• a) 2.0 mg/kg (6.0 mg/m^2), 1× per day. • b) 2.5 mg/kg (7.5 mg/m^2), 2× per day on 2 successive days, followed by 5 treatment-free days. • c) 1.5 mg/kg (4.5 mg/m^2), 2× per day on 3 successive days, followed by 4 treatment-free days. • d) 1.7 mg/kg (5.1 mg/m^2), 2× per day on 3 successive days, followed by 4 treatment-free days.

Row | IC50 (NCI-H69) [nM] | IC50 (MOLM-13) [nM] | Structure (SMILES) | TGITW (tumor growth inhibition from tumor weights) ([1]; NCI-H146; a) 2.0 mg/kg oral 1× per day) [%] | TGITW (tumor growth inhibition from tumor weights) ([1]; NCI-H146; b) 2.0 mg/kg oral 2× per day on 2 successive days, followed by 5 treatment-free days) [%] | TGITW (tumor growth inhibition from tumor weights) [2] [%] | TGITA (tumor growth inhibition from tumor areas, measured on the day the vehicle group was ended) ([3]; MDA-MB231; a) 2.0 mg/kg oral 1× per day) [%] | TGITA (tumor growth inhibition from tumor areas) ([3]; MDA-MB231; b) 2.5 mg/kg oral 2× per day on 2 successive days, followed by 5 treatment-free days) [%] | TGITA (tumor growth inhibition from tumor areas) ([3]; MDA-MB231; c) 1.5 mg/kg oral 2× per day on 3 successive days, followed by 4 treatment-free days) [%] | TGITA (tumor growth inhibition from tumor areas) ([3]; MDA-MB231; d) 1.7 mg/kg oral 2× per day on 3 successive days, followed by 4 treatment-free days) [%]
1 | 37 | 9 | C[C@@H](O)[C@@H](C)Oc1nc(Nc2ccc(S(C)(=N)=O)cc2)ncc1C(F)(F)F (single isomer, unassigned) [Example 2-SI-2] | – | – | – | – | – | – | –
2 | – | – | C[C@@H](O)[C@@H](C)Oc1nc(Nc2ccc(S(C)(=N)=O)cc2)ncc1C(F)(F)F (mixture of isomers) [Example 2-SI-2, (RS)—S-(4-{[4-{[(1R,2R)-2-Hydroxy-1-methylpropyl]oxy}-5-(trifluoromethyl)pyrimidin-2-yl]-amino}phenyl)-S-methylsulfoximide] | 95 | 82 | 86 | 92 | 76 | 70 | 70
